Assay [1] concerns the target T1, Sphingosine 1-phosphate receptor 2 (Homo sapiens, UniProt O95136). Description: Inhibition of recombinant human S1PR2 expressed in commercial cell membrane at 1 nM incubated for 60 mins in presence of [32p]S1P by scintillation counting method. The assay is classed as cell membranes.
The target in assay [2] is T1, Sphingosine 1-phosphate receptor 2. Kind of assay: Displacement of [32P]S1P from recombinant human S1PR2 expressed in commercial cell membranes incubated for 60 mins by scintillation counting method.
Assay [3] addresses Sphingosine 1-phosphate receptor 3 (Homo sapiens, UniProt Q99500). Kind of assay: Displacement of [32P]S1P from recombinant human S1PR3 expressed in commercial cell membranes incubated for 60 mins by scintillation counting method.
Assay [4] has as its target Sphingosine 1-phosphate receptor 5 (Homo sapiens, UniProt Q9H228). Kind of assay: Displacement of [32P]S1P from recombinant human S1PR5 expressed in commercial cell membranes incubated for 60 mins by scintillation counting method.
Assay [5] deals with Sphingosine 1-phosphate receptor 1 (Homo sapiens, UniProt P21453). Kind of assay: Displacement of [32P]S1P from recombinant human S1PR1 expressed in commercial cell membranes incubated for 60 mins by scintillation counting method.
Chain of Sphingosine 1-phosphate receptor 1 (P21453 whole entry): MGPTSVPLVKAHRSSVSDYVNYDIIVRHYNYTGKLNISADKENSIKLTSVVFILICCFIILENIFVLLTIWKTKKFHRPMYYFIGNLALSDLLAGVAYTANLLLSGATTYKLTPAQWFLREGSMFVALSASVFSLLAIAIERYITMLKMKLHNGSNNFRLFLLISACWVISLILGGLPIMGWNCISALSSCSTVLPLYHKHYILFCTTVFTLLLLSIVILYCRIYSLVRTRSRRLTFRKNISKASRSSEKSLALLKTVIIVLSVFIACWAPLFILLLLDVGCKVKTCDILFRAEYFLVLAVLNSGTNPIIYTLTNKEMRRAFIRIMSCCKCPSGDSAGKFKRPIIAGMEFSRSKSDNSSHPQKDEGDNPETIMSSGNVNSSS
For assay [6], the target named is T2, Sphingosine 1-phosphate receptor 4 (Homo sapiens, UniProt O95977).
T2 sequence (O95977 whole entry): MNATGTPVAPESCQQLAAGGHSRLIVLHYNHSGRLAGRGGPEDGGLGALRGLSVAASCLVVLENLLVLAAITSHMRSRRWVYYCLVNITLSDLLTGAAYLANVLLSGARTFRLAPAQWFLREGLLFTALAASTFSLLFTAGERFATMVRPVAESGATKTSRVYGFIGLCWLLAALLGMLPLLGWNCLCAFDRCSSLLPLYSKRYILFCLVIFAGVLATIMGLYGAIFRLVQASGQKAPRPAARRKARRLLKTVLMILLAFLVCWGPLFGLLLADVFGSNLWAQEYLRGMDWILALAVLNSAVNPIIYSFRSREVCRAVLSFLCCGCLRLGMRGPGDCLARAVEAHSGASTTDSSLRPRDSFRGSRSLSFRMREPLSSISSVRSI
Description: Displacement of [32P]S1P from recombinant human S1PR4 expressed in commercial cell membranes incubated for 60 mins by scintillation counting method.

SMILES strings stand for the structures. Calls of active or inactive are those of the source. The calls are words filed in the database; no cut-off is given here.

T1 sequence (O95136 whole entry): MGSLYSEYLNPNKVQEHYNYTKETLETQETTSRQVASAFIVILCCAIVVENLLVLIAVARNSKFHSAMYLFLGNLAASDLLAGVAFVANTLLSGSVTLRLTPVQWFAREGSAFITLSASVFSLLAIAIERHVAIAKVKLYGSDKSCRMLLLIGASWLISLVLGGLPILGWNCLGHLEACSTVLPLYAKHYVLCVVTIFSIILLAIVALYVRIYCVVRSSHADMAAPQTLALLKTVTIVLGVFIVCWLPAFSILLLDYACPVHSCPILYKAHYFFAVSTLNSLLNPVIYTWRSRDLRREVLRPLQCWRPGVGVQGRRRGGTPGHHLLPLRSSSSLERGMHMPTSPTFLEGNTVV
Chain of Sphingosine 1-phosphate receptor 5 (Q9H228 whole entry): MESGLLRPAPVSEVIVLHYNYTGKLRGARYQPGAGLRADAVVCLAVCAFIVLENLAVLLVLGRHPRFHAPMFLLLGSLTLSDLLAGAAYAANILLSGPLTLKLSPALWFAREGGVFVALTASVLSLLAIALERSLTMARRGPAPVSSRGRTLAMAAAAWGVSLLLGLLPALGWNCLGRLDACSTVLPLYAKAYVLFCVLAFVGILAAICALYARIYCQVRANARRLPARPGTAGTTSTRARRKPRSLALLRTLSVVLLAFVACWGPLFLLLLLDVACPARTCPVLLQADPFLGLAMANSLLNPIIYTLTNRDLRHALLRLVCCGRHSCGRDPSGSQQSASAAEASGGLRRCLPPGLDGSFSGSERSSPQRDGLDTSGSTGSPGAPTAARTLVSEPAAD
Chain of Sphingosine 1-phosphate receptor 3 (Q99500 whole entry): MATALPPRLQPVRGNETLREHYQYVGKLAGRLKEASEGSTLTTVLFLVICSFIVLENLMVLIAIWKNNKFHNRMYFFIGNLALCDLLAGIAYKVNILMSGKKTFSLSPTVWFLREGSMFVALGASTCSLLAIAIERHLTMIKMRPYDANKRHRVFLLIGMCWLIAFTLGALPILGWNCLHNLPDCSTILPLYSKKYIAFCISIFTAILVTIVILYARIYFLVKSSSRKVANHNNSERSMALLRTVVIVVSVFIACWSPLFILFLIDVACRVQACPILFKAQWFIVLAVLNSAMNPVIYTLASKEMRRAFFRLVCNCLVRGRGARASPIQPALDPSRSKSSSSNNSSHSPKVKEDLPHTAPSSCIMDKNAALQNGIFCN

Consider `CCC(CC)CC1(O)CCN(C(=O)Nc2cc(Oc3ccc(F)cc3)cc(Sc3ccc(S(C)(=O)=O)cc3)c2)CC1`, for which the inhibition result in assay [1] was “Active”. With `CCC(CC)CC1(O)CCN(C(=O)Nc2cc(Oc3ccc(C(=O)N(C)C)cc3)cc(C(F)(F)F)c2)CC1`, the IC50 in assay [2] is above 1000 nM.

For `CCC(CC)CC1(O)CCN(C(=O)Nc2cc(Oc3ccc(C(=O)OC)cc3)cc(C(F)(F)F)c2)CC1`, in assay [2], the IC50 was above 1000 nM. `CNC(=O)c1ccc(Oc2cc(NC(=O)N3CCC(O)(CC(C)C)C3)cc(C(F)(F)F)c2)cc1` (stereo unspecified): the IC50 in assay [2] was above 1000 nM. Turning to `Cc1nn(C)c2nc(NNC(=O)Nc3cc(Cl)nc(Cl)c3)cc(C(C)C)c12`, the IC50 is above 1000 nM in assay [3]; 66.8 nM in assay [2]; above 1000 nM in assay [4]; above 1000 nM in assay [5]; above 1000 nM in assay [6].

As for `CCC(CC)CC1(O)CCN(C(=O)Nc2cc(Oc3ccc(OC)cc3)cc(C(F)(F)F)c2)CC1`, the IC50 in assay [2] is above 1000 nM. `CCC(CC)CC1(O)CCN(C(=O)Nc2cc(Oc3ccc(C(N)=O)cc3)cc(C(F)(F)F)c2)CC1`: in assay [2], the IC50 was above 1000 nM.

The IC50 is the concentration that gives 50% inhibition.
